Measurements taken from patent US11236086B2, “Substituted pyrrolopyridines as inhibitors of activin receptor-like kinase” (BLUEPRINT MEDICINES CORPORATION, priority 2017, dated 2022).

Tests used:
[1] = target: T1, ALK2R206H (mutant ALK2, N-terminally tagged with GST) (Homo sapiens, UniProt Q04771, R206H); assay: ALK binding assay (LANTHASCREEN TR-FRET competitive binding, displacement of Kinase Tracer 178); conditions: read-out: Binding Assay (IC50 class)
T1 construct: purchased Carna Bioscience or ThermoFisher 09-148 or PV6232
T1 sequence (Q04771 21-509 R206H): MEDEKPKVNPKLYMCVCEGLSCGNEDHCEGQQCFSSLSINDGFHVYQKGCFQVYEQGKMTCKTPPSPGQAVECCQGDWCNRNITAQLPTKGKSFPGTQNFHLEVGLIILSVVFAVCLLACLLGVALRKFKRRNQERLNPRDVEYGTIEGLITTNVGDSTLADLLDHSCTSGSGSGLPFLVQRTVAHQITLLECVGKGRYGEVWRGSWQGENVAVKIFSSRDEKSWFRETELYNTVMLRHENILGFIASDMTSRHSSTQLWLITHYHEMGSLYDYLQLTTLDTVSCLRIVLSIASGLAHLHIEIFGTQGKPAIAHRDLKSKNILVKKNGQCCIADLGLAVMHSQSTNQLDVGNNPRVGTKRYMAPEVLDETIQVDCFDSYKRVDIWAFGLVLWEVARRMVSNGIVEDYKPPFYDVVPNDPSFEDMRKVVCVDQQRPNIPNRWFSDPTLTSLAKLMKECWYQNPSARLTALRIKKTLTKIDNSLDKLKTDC
Outline: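 Competitive displacement of Kinase Tracer 178 (50 nM) from N-terminally GST-tagged mutant ALK2 R206H (2-5 nM) by compound, detected by TR-FRET with Eu-anti-GST antibody (4-10 nM). 30 min room temperature incubation, 1% DMSO final; normalized signal fitted to 4-parameter log dose response for IC50.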

human ALK2 R206H = target: T2, human ALK2 R206H (Homo sapiens, UniProt Q04771, R206H); assay: Cell-based ALK2-R206H cell activity assay (Smad1-Ser463/Ser465 phosphorylation by AlphaLISA in HEK293-ALK2-R206H cells); conditions: phospho-Smad1 AlphaLISA, read-out: Cell Line (Cell Assay, IC50 class)
T2 construct: expressed in transfected cells; host or cells: HEK293 (ATCC CRL1573), lentivirus transduction, blasticidin selection
T2 sequence (Q04771 21-509 R206H): T1 sequence (Q04771 21-509 R206H)
Outline: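 IC50 comes from a 10-point curve, scaled between DMSO and 1 μM LDN193189 controls, of lysate phospho-Smad1 (Ser463/465) measured by AlphaLISA. Compounds (top 10 μM or 1 μM, 3-fold steps, duplicates) were given 2-3 h to serum-starved HEK293 cells that stably express FLAG-tagged human ALK2 R206H.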

IC50 [1] [nM] | IC50 (human ALK2 R206H) [nM] | SMILES
≤ 10 | ≤ 100 | CC(C)N1CCC[C@H](c2ccc(-c3cc4c(N5CCN(C(=O)OC6COC6)CC5)ccnc4[nH]3)cc2)C1 [Compound 468]
≤ 10 | ≤ 100 | O=C(OC1COC1)N1CCN(c2ccnc3[nH]c(-c4cn([C@H]5CCOC5)cn4)cc23)CC1 [Compound 359]
≤ 10 | ≤ 100 | COC1(c2ccc(-c3cc4c(N5CCN(C(=O)OC6COC6)CC5)ccnc4[nH]3)c(C#N)c2)CCOCC1 [Compound 472]
≤ 10 | 100 to 500 | Cn1cc(-c2cc3c(N4CCN(C(=O)OC5(C)COC5)CC4)ccnc3[nH]2)cn1 [Compound 152]
≤ 10 | ≤ 100 | O=C(C1CC1)N1CCN(c2ccnc3[nH]c(-c4ccc(C5CCOC5)cc4)cc23)CC1 (centres unmarked) [Compound 270]
≤ 10 | ≤ 100 | CCOC(=O)N1CCN(c2ccnc3[nH]c(-c4csc(C#N)c4)cc23)CC1 [Compound 86]
≤ 10 | ≤ 100 | CCOC(=O)N1CCN(c2ccnc3[nH]c(-c4cnn(C)c4)c(C)c23)CC1 [Compound 38]
≤ 10 | ≤ 100 | O=C(C1CC1)N1CCN(c2ccnc3[nH]c(-c4ccc(C5(O)CCC5)cc4)cc23)CC1 [Compound 272]
≤ 10 | ≤ 100 | Cc1nc(-c2[nH]c3nccc(N4CCN(C(=O)OC5CC5)CC4)c3c2C#N)cn1C [Compound 201]
≤ 10 | ≤ 100 | CCOC(=O)N1CCN(c2ccnc3[nH]c(-c4cn(C)nc4C#N)cc23)CC1 [Compound 69]
≤ 10 | ≤ 100 | Cn1cnc(-c2[nH]c3nccc(N4CCN(C(=O)OC5CCC5)CC4)c3c2C#N)c1 [Compound 199]
≤ 10 | ≤ 100 | Cn1cc(-c2[nH]c3nccc(N4CCN(C(=O)O[C@@H]5CCC5(F)F)CC4)c3c2C#N)cn1 [Compound 366]
≤ 10 | ≤ 100 | Cc1nc(-c2[nH]c3nccc(N4CCN(C(=O)O[C@H]5C[C@@H](F)C5)CC4)c3c2C#N)cn1C [Compound 356]
≤ 10 | 100 to 500 | C[Si](C)(O)c1ccc(-c2cc3c(N4CCN(C(=O)C5CC5)CC4)ccnc3[nH]2)cc1 [Compound 287]
≤ 10 | 100 to 500 | Cn1cc(-c2[nH]c3nccc(N4CCN(C(=O)O[C@@H]5CCOC5)CC4)c3c2Cl)cn1 [Compound 332]
≤ 10 | 100 to 500 | Cn1cc(-c2cc3c(N4CCN(C(=O)C5CC(F)(F)C5)CC4)ccnc3[nH]2)cn1 [Compound 180]

IC50 [1] [nM] | IC50 (human ALK2 R206H) [nM] | SMILES
≤ 10 | ≤ 100 | O=C(OC1COC1)N1CCN(c2ccnc3[nH]c(-c4cscn4)cc23)CC1 [Compound 112]
≤ 10 | ≤ 100 | O=C(OC1COC1)N1CCN(c2ccnc3[nH]c(-c4ccc(C5=CCOCC5)cc4)cc23)CC1 [Compound 425]
≤ 10 | ≤ 100 | CCOC(=O)N1CCN(c2ccnc3[nH]c(-c4ccccn4)c(Cl)c23)CC1 [Compound 115]
≤ 10 | 100 to 500 | Cn1cc(-c2cc3c(N4CCN(C(=O)C5CC5)CC4)ccnc3[nH]2)cn1 [Compound 6]
≤ 10 | ≤ 100 | O=C(OC1COC1)N1CCN(c2ccnc3[nH]c(-c4cn5c(n4)COCC5)cc23)CC1 [Compound 302]
≤ 10 | ≤ 100 | CC(C)OC(=O)N1CCN(c2ccnc3[nH]c(-c4cnn(C)c4)c(C#N)c23)CC1 [Compound 137]
≤ 10 | ≤ 100 | CC(C)n1cnc(-c2[nH]c3nccc(N4CCN(C(=O)OC5COC5)CC4)c3c2C#N)c1 [Compound 350]
≤ 10 | ≤ 100 | Cc1nc(-c2cc3c(N4CCN(C(=O)O[C@H]5CC(F)(F)C5(F)F)CC4)ccnc3[nH]2)cn1C [Compound 432]
≤ 10 | ≤ 100 | CC1(c2ccc(-c3cc4c(N5CCN(C(=O)C6CC6)CC5)ccnc4[nH]3)cc2)COC1 [Compound 271]
≤ 10 | ≤ 100 | Cn1cc(-c2[nH]c3nccc(N4CCN(C(=O)O[C@H]5C[C@H](F)C5)CC4)c3c2Cl)cn1 [Compound 340]
≤ 10 | > 500 | Cn1cc(-c2cc3c(N4CCN(C(=O)C5CCOCC5)CC4)ccnc3[nH]2)cn1 [Compound 144]
≤ 10 | 100 to 500 | Cn1cc(-c2cc3c(N4CCN(C(=O)CC5CC5)CC4)ccnc3[nH]2)cn1 [Compound 21]
≤ 10 | ≤ 100 | O=C(OC1COC1)N1CCN(c2ccnc3[nH]c(-c4cnn(C5CC5)c4)cc23)CC1 [Compound 219]
≤ 10 | ≤ 100 | CC(C)N1CCC(C)(c2ccc(-c3cc4c(N5CCN(C(=O)OC6COC6)CC5)ccnc4[nH]3)cc2)CC1 [Compound 473]
≤ 10 | 100 to 500 | COc1ccc(-c2cc3c(N4CCN(C(=O)C5CC5)CC4)ccnc3[nH]2)cc1 [Compound 60]

Continued, compound first:

SMILES | IC50 [1] [nM] | IC50 (human ALK2 R206H) [nM]
N#Cc1c(-c2nc3c(s2)COCC3)[nH]c2nccc(N3CCN(C(=O)OC4COC4)CC3)c12 [Compound 434] | ≤ 10 | ≤ 100
CCC(C)OC(=O)N1CCN(c2ccnc3[nH]c(-c4cnn(C)c4)cc23)CC1 (centres unmarked) [Compound 98] | ≤ 10 | 100 to 500
CC(C)(C#N)c1ccc(-c2cc3c(N4CCN(C(=O)OC5COC5)CC4)ccnc3[nH]2)nc1 [Compound 383] | ≤ 10 | ≤ 100
O=C(OC1COC1)N1CCN(c2ccnc3[nH]c(-c4ccc(C5(O)CCCC5)cc4)cc23)CC1 [Compound 427] | ≤ 10 | ≤ 100
Cn1cc(-c2cc3c(N4CCN(C(=O)OC5CC(F)(F)C5)CC4)ccnc3[nH]2)cn1 [Compound 266] | ≤ 10 | ≤ 100
Cc1nc(-c2[nH]c3nccc(N4CCN(C(=O)OC5CC(F)(F)C5)CC4)c3c2C#N)cn1C [Compound 412] | ≤ 10 | ≤ 100
Cn1cc(-c2cc3c(N4CCN(C(=O)O[C@@H]5CC(F)(F)C5(F)F)CC4)ccnc3[nH]2)cn1 [Compound 398] | ≤ 10 | ≤ 100
NC1(c2ccc(-c3cc4c(N5CCN(C(=O)C6CC6)CC5)ccnc4[nH]3)cc2)CC1 [Compound 183] | ≤ 10 | ≤ 100
Cn1cc(-c2cc3c(N4CCN(C(=O)C5CC(F)C5)CC4)ccnc3[nH]2)cn1 (centres unmarked) [Compound 93] | ≤ 10 | ≤ 100
Cn1cc(-c2[nH]c3nccc(N4CCN(C(=O)OC5CC5)CC4)c3c2C#N)cn1 [Compound 129] | ≤ 10 | ≤ 100
O=C(OC1COC1)N1CCN(c2ccnc3[nH]c(-c4ccc(C5(O)CCC5)cc4)cc23)CC1 [Compound 392] | ≤ 10 | ≤ 100
Cc1cc(-c2cc3c(N4CCN(C(=O)OC5COC5)CC4)ccnc3[nH]2)on1 [Compound 104] | ≤ 10 | 100 to 500
CC(C)(C#N)n1cc(-c2cc3c(N4CCN(C(=O)OC5COC5)CC4)ccnc3[nH]2)cn1 [Compound 351] | ≤ 10 | 100 to 500
COc1ccc(-c2cc3c(N4CCN(C(=O)[C@H]5CC[C@H](O)CC5)CC4)ccnc3[nH]2)cc1 [Compound 349] | ≤ 10 | ≤ 100
O=C(C1CC1)N1CCN(c2ccnc3[nH]c(-c4ccc(C5CCNCC5F)cc4)cc23)CC1 (centres unmarked) [Compound 389] | ≤ 10 | ≤ 100
CC(C)COC(=O)N1CCN(c2ccnc3[nH]c(-c4cnn(C)c4)cc23)CC1 [Compound 97] | ≤ 10 | 100 to 500
COc1nc(-c2cc3c(N4CCN(C(=O)OC5COC5)CC4)ccnc3[nH]2)cs1 [Compound 259] | ≤ 10 | 100 to 500
Cn1cc(-c2cc3c(N4CCN(C(=O)OC5CCC5(F)F)CC4)ccnc3[nH]2)cn1 (centres unmarked) [Compound 262] | ≤ 10 | ≤ 100
Cc1nc(-c2[nH]c3nccc(N4CCN(C(=O)OCC(F)F)CC4)c3c2C#N)cn1C [Compound 321] | ≤ 10 | ≤ 100
CCn1cnc(-c2cc3c(N4CCN(C(=O)OC5COC5)CC4)ccnc3[nH]2)c1 [Compound 146] | ≤ 10 | ≤ 100
CCOC(=O)N1CCN(c2ccnc3[nH]c(-c4cnn(C5COC5)c4)cc23)CC1 [Compound 145] | ≤ 10 | ≤ 100
Cc1cnc(-c2cc3c(N4CCN(C(=O)C5CC5)CC4)ccnc3[nH]2)s1 [Compound 34] | ≤ 10 | 100 to 500
CCS(=O)(=O)c1ccc(-c2cc3c(N4CCN(C(=O)C5CC5)CC4)ccnc3[nH]2)cc1 [Compound 362] | ≤ 10 | ≤ 100
Cn1cc(-c2cc3c(N4CCN(C(=O)O[C@H]5CC(F)(F)C5(F)F)CC4)ccnc3[nH]2)cn1 [Compound 401] | ≤ 10 | ≤ 100
